Test results taken from patent US20250195528A1, “DOSE REGIMEN OF VICASINABIN” (Hoffmann-La Roche Inc., priority 2022, published 2025).
Where two headings read alike, the source gives them in different places.

Assays:
[1] = target: T1, CB2 (Rattus norvegicus, UniProt Q9QZN9); assay: In vitro rat Ki; format: binding
T1 sequence (Q9QZN9 1-360): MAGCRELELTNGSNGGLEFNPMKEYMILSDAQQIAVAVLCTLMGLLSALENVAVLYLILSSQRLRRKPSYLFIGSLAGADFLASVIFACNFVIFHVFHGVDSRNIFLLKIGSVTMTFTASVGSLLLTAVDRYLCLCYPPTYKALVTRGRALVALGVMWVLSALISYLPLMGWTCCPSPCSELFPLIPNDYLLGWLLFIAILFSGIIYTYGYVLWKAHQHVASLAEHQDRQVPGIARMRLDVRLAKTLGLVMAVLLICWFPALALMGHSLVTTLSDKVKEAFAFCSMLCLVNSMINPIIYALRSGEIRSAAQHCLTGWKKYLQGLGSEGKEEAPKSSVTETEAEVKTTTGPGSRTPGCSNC
Source text: FIG. 10 illustrates Disease Markers versus Free Exposure of the Active S-Epimer RO6868847 in Several Animal Models. […] Disease markers (hyperfluorescence area in mm^2, OD retina-plasma fluorescein ratio, number of leukocytes per mm^2 or total length of processes in mm) as a percent of the control value (100% represents the vehicle-treated diabetic control and 0% for vehicle-treated healthy control) in different in vivo PD models as a function of the free AUC0-24 of the active S-epimer RO6868847.
Based on this integrated assessment, the pharmacologically active exposure range observed in rats spans 2 logs, with an upper bound (unbound AUC0-24 [S-epimer]=546 ng·hr/mL) corresponding to the full effect at 10 mg/kg in a rat STZ-induced Type 1 diabetes model and the lower bound (unbound AUC0-24 [S-epimer]=2.8 ng·hr/mL) corresponding to 50% decrease in disease marker (hypoerfluorescence area) in a laser-induced NV rat model.

[2] = target: T2, human CB2 (Homo sapiens, UniProt P34972); assay: Forskolin-stimulated cAMP inhibition in stably transfected CHO cells; format: cell-based; conditions: for Emax: CHO, normalized to 10 μM CP55′940; for IC50: IC50 ± SE (nM), CHO cells
T2 construct: expressed in transfected cells; host or cells: CHO cells
T2 sequence (P34972 whole entry): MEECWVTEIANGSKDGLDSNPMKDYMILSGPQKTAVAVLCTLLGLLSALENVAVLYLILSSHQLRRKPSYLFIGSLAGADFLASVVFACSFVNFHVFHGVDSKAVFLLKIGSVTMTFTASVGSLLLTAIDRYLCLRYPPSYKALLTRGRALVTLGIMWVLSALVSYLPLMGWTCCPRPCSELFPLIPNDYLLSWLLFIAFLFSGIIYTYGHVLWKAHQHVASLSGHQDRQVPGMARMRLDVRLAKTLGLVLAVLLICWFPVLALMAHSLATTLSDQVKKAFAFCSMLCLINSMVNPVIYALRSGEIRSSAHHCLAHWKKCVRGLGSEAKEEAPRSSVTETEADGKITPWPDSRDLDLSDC
Source text: (§1) Inhibition of cAMP accumulation in Chinese hamster ovary cells stably expressing recombinant CB2 was used to determine the functional potency of RO6868847 for different CB2 species and the selectivity over the closely related CB1.

[3] = target: T3, rat CB2 (Rattus norvegicus, UniProt Q9QZN9); assay: as above; format: cell-based
T3 construct: expressed in transfected cells; host or cells: CHO cells
T3 sequence (Q9QZN9 1-360): T1 sequence (Q9QZN9 1-360)
Source text: as §1

[4] = system: 15-lipoxygenase, MAGL, diacylglycerol lipase, or FAAH enzymes; assay: Functional cellular assays, enzymes of the endocannabinoid pathway; format: cell-based; conditions: up to 500 μM in human targets
[5] = Study BP40387 Part 2 (FE) food effect on pharmacokinetics; format: in vivo, human; conditions: for Tmax: both sexes, human, plasma, oral, 100 mg single dose, read-out: Median Tmax
Source text: In Part 2 (FE) of Study BP40387, consistent with delayed gastric emptying due to an extended meal, the time to reach peak plasma concentration (Tmax) was slightly longer following dosing after a high fat, high calorie breakfast. […] Single Dose Urine Pharmacokinetics

Cn1nnnc1Cn1nnc2c(N3CC[C@H](O)C3)nc(C(C)(C)C)nc21 [RO6868847, (3S)-1-[5-tert-butyl-3-[(1-methyltetrazol-5-yl)methyl]triazolo[4,5-d]pyrimidin-7-yl]pyrrolidin-3-ol]
Ki ([1]; rat): 33.3 nM
unbound AUC0-24 at in vitro rat Ki as share of upper bound of active exposure ([1]; rat): 52%
free AUC0-24 extrapolated from rat Ki ([1]; rat Ki x 24): 0.286 µg·h/mL
Ki ([1]; rat, converted from nM): 33.5 nM
agonist character at human CB2 [2]: potent, full agonist
Emax ([2]; Human): 103%
Emax ([2]; second row printed 'Human'): 101%
IC50 ([2]; Human, four independent experiments): 2.81 ± 0.28 nM
IC50 ([2]; second row printed 'Human'): 2.6 ± 0.14 nM
IC50 [3]: 0.58 ± 0.04 nM
Emax ([3]; CHO, Rats, normalized to 10 μM CP55′940): 94.7%
activity at endocannabinoid pathway enzymes [4]: no activity
effect of food on AUCInf ([5]; 100 mg, fed vs fasted): increased only marginally
effect of food on Cmax ([5]; 100 mg, fed vs fasted): remained unaffected by food
Tmax ([5]; 100 mg, fasted state): 3 h
Tmax ([5]; 100 mg, fed state (high fat, high calorie breakfast)): 4 h
effect of food on the pharmacokinetics ([5]; overall): no relevant effect
